Measurements: patent publication US8546451B2 (priority 2005, dated 2013)
Marks after values point to notes of the source that are not given here.

Key:
hERG channel = hERG channel (Homo sapiens (Human), UniProt Q12809); test: hERG channel inhibition in vitro; type: cell-based
Procedure: Compound IV exerts little or no in vitro inhibitory effects (IC50≧300 μM) on the hERG channel.

intact and ORX rats = test: Prostate size, Compound IV versus DES in rats; type: in vivo
[1] = tested on: testosterone, prostate specific antigen (PSA), prostate volume and weight; test: 39-week oral pharmacology and toxicology study in male cynomolgus monkey (13-week interim); conditions: for Mean serum PSA level / Percentage change of mean PSA levels compared to baseline: 4-week; for Percentage change of mean prostate volumes compared to baseline / Mean prostate volumes (ratio): 6-week; for Mean prostate volumes (ratio): TRUS, normalized to body weight; for Mean prostate weights at necropsy / Percentage change of mean prostate weights compared to baseline: 13-week; for reduction of prostate volume: six weeks; for reduction of mean prostate weights: thirteen weeks
[2] = target: mineralocorticoids receptor (MR) (Rattus norvegicus (Rat), UniProt P22199); test: Cross-reactivity transcriptional activation assay, MR; type: cell-based; conditions: agonist and antagonist modes
mineralocorticoids receptor (MR), sequence (P22199 whole entry, canonical isoform): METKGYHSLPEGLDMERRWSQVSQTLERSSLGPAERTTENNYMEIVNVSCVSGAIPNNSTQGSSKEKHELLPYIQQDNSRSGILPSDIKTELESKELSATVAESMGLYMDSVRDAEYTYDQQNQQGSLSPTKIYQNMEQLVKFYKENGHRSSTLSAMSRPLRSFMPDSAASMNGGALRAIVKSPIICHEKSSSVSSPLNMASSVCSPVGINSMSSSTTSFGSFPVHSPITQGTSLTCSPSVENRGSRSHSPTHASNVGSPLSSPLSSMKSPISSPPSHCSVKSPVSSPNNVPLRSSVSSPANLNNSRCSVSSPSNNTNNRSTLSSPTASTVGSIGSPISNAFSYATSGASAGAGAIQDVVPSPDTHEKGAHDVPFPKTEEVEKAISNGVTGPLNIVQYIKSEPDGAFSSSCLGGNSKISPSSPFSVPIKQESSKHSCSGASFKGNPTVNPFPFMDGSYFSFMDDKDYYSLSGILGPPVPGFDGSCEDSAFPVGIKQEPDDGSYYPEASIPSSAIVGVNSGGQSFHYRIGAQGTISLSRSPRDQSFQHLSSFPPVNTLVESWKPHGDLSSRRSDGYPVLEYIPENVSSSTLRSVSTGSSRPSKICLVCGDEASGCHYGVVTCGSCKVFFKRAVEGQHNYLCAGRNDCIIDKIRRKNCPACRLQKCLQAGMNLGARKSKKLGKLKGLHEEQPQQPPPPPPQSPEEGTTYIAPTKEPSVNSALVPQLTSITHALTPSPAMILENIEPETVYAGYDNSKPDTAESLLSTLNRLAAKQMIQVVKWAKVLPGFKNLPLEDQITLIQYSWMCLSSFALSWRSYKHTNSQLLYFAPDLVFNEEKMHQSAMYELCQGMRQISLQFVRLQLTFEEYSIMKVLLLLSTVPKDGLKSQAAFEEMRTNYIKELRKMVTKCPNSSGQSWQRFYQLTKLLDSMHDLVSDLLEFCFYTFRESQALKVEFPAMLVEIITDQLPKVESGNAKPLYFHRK
Text: Compound IV was screened for cross-reactivity against rat isoforms of glucocorticoid receptor (GR), mineralocorticoids receptor (MR), progesterone receptor (PR), androgen receptor (AR) and human isoforms of farnesoid X receptor (FXR), liver X receptor (LXR), peroxisome proliferator-activated receptors (PPAR-α and PPAR-γ), and retinoid X receptor (RXR-α) in both agonist and antagonist modes in transcriptional activation assays.

[3] = 1 mg/kg/day oral, Estimated final concentrations
[4] = 1 mg/kg/day oral, Quantifiable concentrations only
[5] = 10 mg/kg/day oral, Estimated final concentrations
[6] = 10 mg/kg/day oral, Quantifiable concentrations only
[7] = 100 mg/kg/day oral, Estimated final concentrations
[8] = 100 mg/kg/day oral, Quantifiable concentrations only
[9] = Day 1, 1 mg/kg/day oral, Estimated final concentrations
[10] = Day 1, 1 mg/kg/day oral, Quantifiable concentrations only
[11] = Day 1, 10 mg/kg/day oral, Estimated final concentrations
[12] = Day 1, 10 mg/kg/day oral, Quantifiable concentrations only
[13] = Day 1, 100 mg/kg/day oral, Estimated final concentrations
[14] = Day 1, 100 mg/kg/day oral, Quantifiable concentrations only
[15] = Day 3, 1 mg/kg/day oral, Estimated final concentrations
[16] = Day 3, 1 mg/kg/day oral, Quantifiable concentrations only
[17] = Day 3, 10 mg/kg/day oral, Estimated final concentrations
[18] = Day 3, 10 mg/kg/day oral, Quantifiable concentrations only
[19] = Day 3, 100 mg/kg/day oral, Estimated final concentrations
[20] = Day 3, 100 mg/kg/day oral, Quantifiable concentrations only
[21] = Day 7, 1 mg/kg/day oral, Estimated final concentrations
[22] = Day 7, 1 mg/kg/day oral, Quantifiable concentrations only
[23] = Day 7, 10 mg/kg/day oral, Estimated final concentrations
[24] = Day 7, 10 mg/kg/day oral, Quantifiable concentrations only
[25] = Day 7, 100 mg/kg/day oral, Estimated final concentrations
[26] = Day 7, 100 mg/kg/day oral, Quantifiable concentrations only
[27] = Day 14, 1 mg/kg/day oral, Estimated final concentrations
[28] = Day 14, 1 mg/kg/day oral, Quantifiable concentrations only
[29] = Day 14, 10 mg/kg/day oral, Estimated final concentrations
[30] = Day 14, 10 mg/kg/day oral, Quantifiable concentrations only
[31] = Day 14, 100 mg/kg/day oral, Estimated final concentrations
[32] = Day 14, 100 mg/kg/day oral, Quantifiable concentrations only
[33] = Day 28, 1 mg/kg/day oral, Estimated final concentrations
[34] = Day 28, 1 mg/kg/day oral, Quantifiable concentrations only
[35] = Day 28, 10 mg/kg/day oral, Estimated final concentrations
[36] = Day 28, 10 mg/kg/day oral, Quantifiable concentrations only
[37] = Day 28, 100 mg/kg/day oral, Estimated final concentrations
[38] = Day 28, 100 mg/kg/day oral, Quantifiable concentrations only
[39] = Day 64, 1 mg/kg/day oral, Estimated final concentrations
[40] = Day 64, 1 mg/kg/day oral, Quantifiable concentrations only
[41] = Day 64, 10 mg/kg/day oral, Estimated final concentrations
[42] = Day 64, 10 mg/kg/day oral, Quantifiable concentrations only
[43] = Day 64, 100 mg/kg/day oral, Estimated final concentrations
[44] = Day 64, 100 mg/kg/day oral, Quantifiable concentrations only
[45] = Day 90, 1 mg/kg/day oral, Estimated final concentrations
[46] = Day 90, 1 mg/kg/day oral, Quantifiable concentrations only
[47] = Day 90, 10 mg/kg/day oral, Estimated final concentrations
[48] = Day 90, 10 mg/kg/day oral, Quantifiable concentrations only
[49] = Day 90, 100 mg/kg/day oral, Estimated final concentrations
[50] = Day 90, 100 mg/kg/day oral, Quantifiable concentrations only

hERG channel, sequence (Q12809 whole entry): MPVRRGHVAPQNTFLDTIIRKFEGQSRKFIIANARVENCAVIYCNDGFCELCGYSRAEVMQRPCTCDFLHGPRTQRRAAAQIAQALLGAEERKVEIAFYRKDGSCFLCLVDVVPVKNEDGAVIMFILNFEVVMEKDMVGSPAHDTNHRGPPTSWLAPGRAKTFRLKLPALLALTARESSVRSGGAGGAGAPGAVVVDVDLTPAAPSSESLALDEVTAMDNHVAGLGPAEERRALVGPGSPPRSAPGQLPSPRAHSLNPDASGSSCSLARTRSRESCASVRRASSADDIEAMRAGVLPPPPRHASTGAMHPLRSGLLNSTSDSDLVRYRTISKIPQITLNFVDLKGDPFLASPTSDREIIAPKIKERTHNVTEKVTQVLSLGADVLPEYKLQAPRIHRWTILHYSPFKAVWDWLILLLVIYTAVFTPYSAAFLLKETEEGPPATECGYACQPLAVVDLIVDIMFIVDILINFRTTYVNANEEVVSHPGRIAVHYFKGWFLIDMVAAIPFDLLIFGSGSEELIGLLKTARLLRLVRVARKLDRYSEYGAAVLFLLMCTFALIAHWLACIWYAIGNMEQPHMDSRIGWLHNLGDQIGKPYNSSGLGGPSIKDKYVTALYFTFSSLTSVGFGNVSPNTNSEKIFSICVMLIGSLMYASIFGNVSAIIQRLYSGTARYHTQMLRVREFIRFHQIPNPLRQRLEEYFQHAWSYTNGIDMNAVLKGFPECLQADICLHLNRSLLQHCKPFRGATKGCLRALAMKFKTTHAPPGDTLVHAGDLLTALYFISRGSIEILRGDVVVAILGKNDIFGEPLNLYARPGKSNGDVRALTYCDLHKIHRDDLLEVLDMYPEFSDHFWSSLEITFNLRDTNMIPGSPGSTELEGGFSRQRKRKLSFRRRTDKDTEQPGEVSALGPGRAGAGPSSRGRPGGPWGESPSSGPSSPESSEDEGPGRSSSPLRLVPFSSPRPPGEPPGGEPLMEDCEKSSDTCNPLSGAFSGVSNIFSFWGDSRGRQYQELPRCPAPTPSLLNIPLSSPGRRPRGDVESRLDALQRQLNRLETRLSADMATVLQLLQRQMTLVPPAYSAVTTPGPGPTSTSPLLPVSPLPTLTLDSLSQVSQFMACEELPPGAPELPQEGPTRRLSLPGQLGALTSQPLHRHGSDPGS

O=C(c1ccc(O)c(F)c1)N(c1ccc(O)cc1)c1ccc(F)cc1 [Compound IV, 3-fluoro-N-(4-fluorophenyl)-4-hydroxy-N-(4-hydroxyphenyl)benzamide]
IC50 (hERG channel): ≥ 300 µM
prostate size of ORX rats (intact and ORX rats; ORX rats (FIG. 11B)): moderate increase
reduction of prostate size (intact and ORX rats; rats (FIG. 11A), compared with DES): as effective as DES
PSA reduction (in mean) ([1]; 10 mg/kg for 4 weeks): 69%
PSA reduction (in mean) ([1]; 100 mg/kg for 4 weeks): 87%
body weight reduction ([1]; 100 mg/kg, 91 days (FIG. 14)): ~20%
Mean serum PSA level [1, 3]: 0.9 ng/mL
Percentage change of mean PSA levels compared to baseline [1, 3]: −11%
Mean serum PSA level [1, 4]: 0.9 ng/mL
Percentage change of mean PSA levels compared to baseline [1, 4]: −11%
Mean serum PSA level [1, 5]: 0.3* ng/mL
Percentage change of mean PSA levels compared to baseline [1, 5]: −69%
Mean serum PSA level [1, 6]: 0.3 ng/mL
Percentage change of mean PSA levels compared to baseline [1, 6]: −64%
Mean serum PSA level [1, 7]: 0.1^& ng/mL
Percentage change of mean PSA levels compared to baseline [1, 7]: −87%
Mean serum PSA level [1, 8]: 0.3 ng/mL
Percentage change of mean PSA levels compared to baseline [1, 8]: −72%
Percentage change of mean prostate volumes compared to baseline ([1]; 1 mg/kg/day oral): 6.8%
Mean prostate volumes (ratio) ([1]; 1 mg/kg/day oral): 468
Percentage change of mean prostate volumes compared to baseline ([1]; 10 mg/kg/day oral): −25%
Mean prostate volumes (ratio) ([1]; 10 mg/kg/day oral): 327
Percentage change of mean prostate volumes compared to baseline ([1]; 100 mg/kg/day oral): −45%
Mean prostate volumes (ratio) ([1]; 100 mg/kg/day oral): 242
Mean prostate weights at necropsy ([1]; 1 mg/kg/day oral): 1.8 grams
Percentage change of mean prostate weights compared to baseline ([1]; 1 mg/kg/day oral): 1.7%
Mean prostate weights at necropsy ([1]; 10 mg/kg/day oral): 1.3 grams
Percentage change of mean prostate weights compared to baseline ([1]; 10 mg/kg/day oral): −24%
Mean prostate weights at necropsy ([1]; 100 mg/kg/day oral): 1.4 grams
Percentage change of mean prostate weights compared to baseline ([1]; 100 mg/kg/day oral): −21%
gynecomastia or hyperestrogenicity ([1]; 91 days (FIG. 14)): No sign of gynecomastia or hyperestrogenicity
Mean serum testosterone level [1, 9]: 11 ng/mL
Percentage change of mean serum testosterone levels compared to baseline [1, 9]: 44%
Mean serum testosterone level [1, 10]: 11 ng/mL
Percentage change of mean testosterone levels compared to baseline [1, 10]: 44%
Mean serum testosterone level [1, 11]: 7.6 ng/mL
Percentage change of mean serum testosterone levels compared to baseline [1, 11]: 54%
Mean serum testosterone level [1, 12]: 7.6 ng/mL
Percentage change of mean testosterone levels compared to baseline [1, 12]: 54%
Mean serum testosterone level [1, 13]: 8.0 ng/mL
Percentage change of mean serum testosterone levels compared to baseline [1, 13]: 82%
Mean serum testosterone level [1, 14]: 8.0 ng/mL
Percentage change of mean testosterone levels compared to baseline [1, 14]: 82%
Mean serum testosterone level [1, 15]: 7.4 ng/mL
Percentage change of mean serum testosterone levels compared to baseline [1, 15]: 1.8%
Mean serum testosterone level [1, 16]: 7.4 ng/mL
Percentage change of mean testosterone levels compared to baseline [1, 16]: 1.8%
Mean serum testosterone level [1, 17]: 5.1 ng/mL
Percentage change of mean serum testosterone levels compared to baseline [1, 17]: 3.5%
Mean serum testosterone level [1, 18]: 5.1 ng/mL
Percentage change of mean testosterone levels compared to baseline [1, 18]: 3.5%
suppression of serum testosterone relative to the baseline value ([1]; Day 3, 100 mg/kg/day oral): 60%
Mean serum testosterone level [1, 19]: 1.8* ng/mL
Percentage change of mean serum testosterone levels compared to baseline [1, 19]: −60%
Mean serum testosterone level [1, 20]: 1.8 ng/mL
Percentage change of mean testosterone levels compared to baseline [1, 20]: −60%
Mean serum testosterone level [1, 21]: 6.7 ng/mL
Percentage change of mean serum testosterone levels compared to baseline [1, 21]: −8.1%
Mean serum testosterone level [1, 22]: 6.7 ng/mL
Percentage change of mean testosterone levels compared to baseline [1, 22]: −8.1%
Mean serum testosterone level [1, 23]: 7.7 ng/mL
Percentage change of mean serum testosterone levels compared to baseline [1, 23]: 57%
Mean serum testosterone level [1, 24]: 7.7 ng/mL
Percentage change of mean testosterone levels compared to baseline [1, 24]: 57%
suppression of serum testosterone relative to the baseline value ([1]; Day 7, 100 mg/kg/day oral): 51%
Mean serum testosterone level [1, 25]: 2.2* ng/mL
Percentage change of mean serum testosterone levels compared to baseline [1, 25]: −51%
Mean serum testosterone level [1, 26]: 2.2 ng/mL
Percentage change of mean testosterone levels compared to baseline [1, 26]: −51%
Mean serum testosterone level [1, 27]: 3.8 ng/mL
Percentage change of mean serum testosterone levels compared to baseline [1, 27]: −48%
Mean serum testosterone level [1, 28]: 3.8 ng/mL
Percentage change of mean testosterone levels compared to baseline [1, 28]: −48%
Mean serum testosterone level [1, 29]: 7.1 ng/mL
Percentage change of mean serum testosterone levels compared to baseline [1, 29]: 45%
Mean serum testosterone level [1, 30]: 7.1 ng/mL
Percentage change of mean testosterone levels compared to baseline [1, 30]: 45%
suppression of serum testosterone relative to the baseline value ([1]; Day 14, 100 mg/kg/day oral): 42%
Mean serum testosterone level [1, 31]: 2.6 ng/mL
Percentage change of mean serum testosterone levels compared to baseline [1, 31]: −42%
Mean serum testosterone level [1, 32]: 2.6 ng/mL
Percentage change of mean testosterone levels compared to baseline [1, 32]: −42%
Mean serum testosterone level [1, 33]: 4.7 ng/mL
Percentage change of mean serum testosterone levels compared to baseline [1, 33]: −35%
Mean serum testosterone level [1, 34]: 4.7 ng/mL
Percentage change of mean testosterone levels compared to baseline [1, 34]: −35%
Mean serum testosterone level [1, 35]: 9.4 ng/mL
Percentage change of mean serum testosterone levels compared to baseline [1, 35]: 92%
Mean serum testosterone level [1, 36]: 9.4 ng/mL
Percentage change of mean testosterone levels compared to baseline [1, 36]: 92%
suppression of serum testosterone relative to the baseline value ([1]; Day 28, 100 mg/kg/day oral): 79%
Mean serum testosterone level [1, 37]: 0.9* ng/mL
Percentage change of mean serum testosterone levels compared to baseline [1, 37]: −79%
Mean serum testosterone level [1, 38]: 0.9 ng/mL
Percentage change of mean testosterone levels compared to baseline [1, 38]: −79%
Mean serum testosterone level [1, 39]: 4.3 ng/mL
Percentage change of mean serum testosterone levels compared to baseline [1, 39]: −41%
Mean serum testosterone level [1, 40]: 4.3 ng/mL
Percentage change of mean testosterone levels compared to baseline [1, 40]: −41%
Mean serum testosterone level [1, 41]: 5.4 ng/mL
Percentage change of mean serum testosterone levels compared to baseline [1, 41]: 11%
Mean serum testosterone level [1, 42]: 5.4 ng/mL
Percentage change of mean testosterone levels compared to baseline [1, 42]: 11%
suppression of serum testosterone relative to the baseline value ([1]; Day 64, 100 mg/kg/day oral): 92%
Mean serum testosterone level [1, 43]: 0.3* ng/mL
Percentage change of mean serum testosterone levels compared to baseline [1, 43]: −92%
Mean serum testosterone level [1, 44]: 0.3 ng/mL
Percentage change of mean testosterone levels compared to baseline [1, 44]: −92%
Mean serum testosterone level [1, 45]: 4.2 ng/mL
Percentage change of mean serum testosterone levels compared to baseline [1, 45]: −42%
Mean serum testosterone level [1, 46]: 4.2 ng/mL
Percentage change of mean testosterone levels compared to baseline [1, 46]: −42%
Mean serum testosterone level [1, 47]: 4.6 ng/mL
Percentage change of mean serum testosterone levels compared to baseline [1, 47]: −5.5%
Mean serum testosterone level [1, 48]: 4.6 ng/mL
Percentage change of mean testosterone levels compared to baseline [1, 48]: −5.5%
Mean serum testosterone level [1, 49]: 0.2* ng/mL
Percentage change of mean serum testosterone levels compared to baseline [1, 49]: −96%
suppression of serum testosterone relative to the baseline value [1, 49]: 96%
Mean serum testosterone level [1, 50]: 0.2 ng/mL
Percentage change of mean testosterone levels compared to baseline [1, 50]: −95%
monkeys with testosterone below the limit of quantification ([1]; after 90 days, 100 mg/kg/day oral, LLOQ 0.246 ng/mL): 6 of 10
testosterone flare ([1]; any dose up to 100 mg/kg/day): not observed
effects on platelet aggregation, prothrombin time (PT) or activated partial thromboplastin time (APTT) ([1]; cynomolgus monkey, in vivo): No apparent effects
reduction of prostate volume ([1]; 10 mg/kg): 25%
reduction of prostate volume ([1]; 100 mg/kg): 45%
reduction of mean prostate weights ([1]; 10 mg/kg/day): 24%
reduction of mean prostate weights ([1]; 100 mg/kg/day): 21%
agonist or antagonist activity [2]: did not display any agonist or antagonist activity
